The values that follow are results of earlier work, collected in US20100093842A1, “Laulimalide Analogs and Uses Thereof” (EISAI CO. LTD., priority 2003, published 2010).

The structures appear in SMILES notation.

Series [1] has as its system multi-drug resistant (MDR) cell lines that over express the P-glycoprotein pump (P-gp). Conditions: cell lines over expressing P-gp.
A further series relates to tubulin. To be noted: low micromolar concentrations; compared with equivalent concentrations of Laulimalide.

For the compound `C=C1C[C@H](C)C[C@@H]2CC=C[C@@H](C/C=C\C(=O)O[C@H]([C@@H](O)/C=C/[C@@H]3CC(C)=CCO3)C[C@@H]3O[C@H]3[C@@H](O)C1)O2` [Laulimalide], the “in vitro anti-mitotic activity” value with several cancer lines (in vitro) is 5 to 12 nM. Moreover, in the series on several cancer lines (several cancer lines), the cytotoxic activity result is “potent cytotoxic activity”. Moreover, the “activity against multi-drug resistant (MDR) cell lines” value in series [1] is on record as “show activity against multi-drug resistant (MDR) cell lines”.

Take `CC(=O)O[C@H]1C(=O)[C@@]2(C)[C@H]([C@H](OC(=O)c3ccccc3)[C@]3(O)C[C@H](OC(=O)[C@H](O)[C@@H](NC(=O)c4ccccc4)c4ccccc4)C(C)=C1C3(C)C)[C@]1(OC(C)=O)CO[C@@H]1C[C@@H]2O` [Paclitaxel]: in the series with tubulin, the rate of polymerization result is “faster” and the tubulin polymer formed result was “more tubulin polymer was formed”.
